Reference: patent publication US20240368139A1, “NOVEL MODULATORS OF EHMT1 AND EHMT2 AND THERAPEUTIC USE THEREOF” (Tango Therapeutics, Inc., priority 2021, published 2024)

How the values were obtained:
H3K9me2 in HCT116 cells = assay: HCT116 H3K9me2 in-cell western assay; type: cell-based; conditions: Homo sapiens, HCT-116, 72 h, HCT116 cells, 72 hours incubation; read-out: H3K9me2 ICW IC50
Procedure, shortened: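 HCT116 cells (2,000/well) were treated for 72 h at 37° C, 5% CO2, with ten two-fold dilutions from 10 μM in duplicate. After PFA fixation, cells were stained overnight at 4° C with anti-H3K9me2, then with an 800 CW secondary plus DRAQ5.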

human EHMT1 982-1266 = molecular target: T1, human EHMT1 982-1266 (Homo sapiens, UniProt Q9H9B1); assay: EHMT1 enzyme assay on histone peptide substrate (3H-SAM SPA); conditions: EHMT1 IC50, recombinant human EHMT1 982-1266, histone peptide substrate
T1 sequence (Q9H9B1 982-1266): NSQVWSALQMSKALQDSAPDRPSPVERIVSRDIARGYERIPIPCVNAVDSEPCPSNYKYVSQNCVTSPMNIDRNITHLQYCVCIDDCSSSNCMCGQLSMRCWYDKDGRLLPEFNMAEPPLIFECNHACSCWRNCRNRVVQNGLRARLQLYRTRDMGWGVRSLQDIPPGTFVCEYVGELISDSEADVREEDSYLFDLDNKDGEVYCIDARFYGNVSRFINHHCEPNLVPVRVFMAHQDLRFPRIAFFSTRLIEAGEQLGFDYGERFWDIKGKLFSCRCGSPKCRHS

human EHMT2 913-1193 = molecular target: T2, human EHMT2 913-1193 (Homo sapiens, UniProt Q96KQ7); assay: EHMT2 enzyme assay on histone peptide substrate (3H-SAM SPA); conditions: EHMT2 IC50, recombinant human EHMT2 913-1193, histone peptide substrate
T2 sequence (Q96KQ7 913-1193): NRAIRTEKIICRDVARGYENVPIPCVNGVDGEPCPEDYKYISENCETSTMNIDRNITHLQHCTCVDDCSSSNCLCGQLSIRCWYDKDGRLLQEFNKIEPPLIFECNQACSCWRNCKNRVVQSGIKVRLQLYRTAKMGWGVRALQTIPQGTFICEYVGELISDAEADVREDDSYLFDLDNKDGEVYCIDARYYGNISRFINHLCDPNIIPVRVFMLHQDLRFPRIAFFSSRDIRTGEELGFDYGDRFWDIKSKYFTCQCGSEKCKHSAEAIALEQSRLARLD

hERG potassium channels = hERG potassium channels (Homo sapiens, UniProt Q12809); assay: In vitro hERG assay (SyncroPatch whole-cell recording); conditions: room temperature
[1] = hERG IC50, CHO cells stably expressing hERG

hERG potassium channels, sequence (Q12809 whole entry): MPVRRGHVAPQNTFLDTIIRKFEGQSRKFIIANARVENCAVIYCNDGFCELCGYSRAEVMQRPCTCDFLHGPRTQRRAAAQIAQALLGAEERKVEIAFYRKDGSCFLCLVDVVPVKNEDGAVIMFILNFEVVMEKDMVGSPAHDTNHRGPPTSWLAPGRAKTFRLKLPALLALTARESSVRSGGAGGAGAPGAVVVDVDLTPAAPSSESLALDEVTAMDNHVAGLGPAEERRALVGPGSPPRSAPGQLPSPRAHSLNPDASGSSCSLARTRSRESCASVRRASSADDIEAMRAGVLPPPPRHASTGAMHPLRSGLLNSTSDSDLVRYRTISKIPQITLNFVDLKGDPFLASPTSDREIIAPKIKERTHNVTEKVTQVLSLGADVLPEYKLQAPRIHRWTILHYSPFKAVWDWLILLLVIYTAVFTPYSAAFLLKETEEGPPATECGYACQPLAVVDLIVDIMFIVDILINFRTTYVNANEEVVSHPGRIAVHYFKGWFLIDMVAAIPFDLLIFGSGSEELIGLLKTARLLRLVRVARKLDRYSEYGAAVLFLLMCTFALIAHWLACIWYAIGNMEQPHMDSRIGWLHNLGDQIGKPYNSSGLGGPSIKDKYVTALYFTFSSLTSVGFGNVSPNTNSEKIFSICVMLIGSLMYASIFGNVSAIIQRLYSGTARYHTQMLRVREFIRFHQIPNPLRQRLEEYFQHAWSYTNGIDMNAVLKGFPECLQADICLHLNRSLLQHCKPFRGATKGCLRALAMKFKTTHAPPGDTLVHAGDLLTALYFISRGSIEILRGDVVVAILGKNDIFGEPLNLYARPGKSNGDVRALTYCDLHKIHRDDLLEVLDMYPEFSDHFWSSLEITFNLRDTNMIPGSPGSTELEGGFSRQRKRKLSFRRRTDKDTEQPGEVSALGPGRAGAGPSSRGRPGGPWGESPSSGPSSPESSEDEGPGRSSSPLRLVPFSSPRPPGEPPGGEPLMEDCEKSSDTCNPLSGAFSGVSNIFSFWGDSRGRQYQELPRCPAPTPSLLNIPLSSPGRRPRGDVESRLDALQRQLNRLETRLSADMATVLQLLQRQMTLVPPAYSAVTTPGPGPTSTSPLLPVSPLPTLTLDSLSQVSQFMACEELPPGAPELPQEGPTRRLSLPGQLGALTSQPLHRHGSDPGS

Row | Compound | IC50 (H3K9me2 in HCT116 cells) [nM] | IC50 (human EHMT1 982-1266) [nM] | IC50 (human EHMT2 913-1193) [nM] | IC50 (hERG potassium channels; hERG IC50, SyncroPatch) [nM] | IC50 (hERG potassium channels; [1]) [nM]
1 | CNc1cc(C)nc(Nc2cc3c(c(C4=C[C@H]5CNC[C@H]5C4)c2)OCCO3)n1 (racemic) [Compound 134, N2-[5-(1,2,3,3a,6,6a-hexahydrocyclopenta[c]pyrrol-5-yl)-2,3-dihydro-1,4-benzodioxin-7-yl]-N4,6-dimethyl-pyrimidine-2,4-diamine] | 100 to 500 | 100 to 500 | 100 to 500 | > 10000 | –
2 | CNc1cc(C)nc(Nc2cc3c(c(OCCCN4CCCC4)c2)OCC3)n1 [Compound 103, N^4,6-dimethyl-N^2-[7-(3-pyrrolidin-1-ylpropoxy)-2,3-dihydrobenzofuran-5-yl]pyrimidine-2,4-diamine] | 100 to 500 | 100 to 500 | 500 to 2000 | > 10000 | –
3 | CNc1cc(C)nc(Nc2cc3c(c(OCCCN4CCCC4)c2)OCCC3)n1 [Compound 113, N4,6-dimethyl-N2-[8-(3-pyrrolidin-1-ylpropoxy)chroman-6-yl]pyrimidine-2,4-diamine] | 100 to 500 | 100 to 500 | 500 to 2000 | < 2000 | –
4 | CNc1cc(C)nc(Nc2cc(OCCCN3CCCC3)c3c(c2)OCO3)n1 [Compound 118, N4,6-dimethyl-N2-[7-(3-pyrrolidin-1-ylpropoxy)-1,3-benzodioxol-5-yl]pyrimidine-2,4-diamine] | 100 to 500 | 100 to 500 | 500 to 2000 | 5000 to 10000 | –
5 | CNc1cc(C)nc(Nc2cc(OCCCN3CCCC3)c3c(c2)OCCO3)n1 [Compound 122, N4,6-dimethyl-N2-[5-(3-pyrrolidin-1-ylpropoxy)-2,3-dihydro-1,4-benzodioxin-7-yl]pyrimidine-2,4-diamine] | 100 to 500 | 100 to 500 | 100 to 500 | 2000 to 5000 | –
6 | CNc1cc(C)nc(Nc2cc3c(c(C4=CCNCCC4)c2)OCCO3)n1 [Compound 130, N4,6-dimethyl-N2-[5-(2,3,4,7-tetrahydro-1H-azepin-5-yl)-2,3-dihydro-1,4-benzodioxin-7-yl]pyrimidine-2,4-diamine] | < 100 | < 100 | < 100 | 2000 to 5000 | –
7 | CNc1cc(C)nc(Nc2cc3c(c(C4=CCN(C)CCC4)c2)OCCO3)n1 [Compound 131, N4,6-dimethyl-N2-[5-(1-methyl-2,3,4,7-tetrahydroazepin-5-yl)-2,3-dihydro-1,4-benzodioxin-7-yl]pyrimidine-2,4-diamine] | < 100 | < 100 | 100 to 500 | 5000 to 10000 | –
8 | CNc1cc(C)nc(Nc2cc3c(c(C4=CCNCCC4)c2)OCO3)n1 [Compound 137, N4,6-dimethyl-N2-[7-(2,3,4,7-tetrahydro-1H-azepin-5-yl)-1,3-benzodioxol-5-yl]pyrimidine-2,4-diamine] | < 100 | < 100 | < 100 | 5000 to 10000 | –
9 | CNc1cc(C)nc(Nc2cc3c(c(C4=CCNCCC4)c2)OC(F)(F)O3)n1 [Compound 142, N2-[2,2-difluoro-7-(2,3,4,7-tetrahydro-1H-azepin-5-yl)-1,3-benzodioxol-5-yl]-N4,6-dimethyl-pyrimidine-2,4-diamine] | 100 to 500 | < 100 | < 100 | < 2000 | –
10 | CNc1cc(C)nc(Nc2cc3c(c(C4=CCNCCC4)c2)OCCO3)c1 [Compound 144, N4,6-dimethyl-N2-[5-(2,3,4,7-tetrahydro-1H-azepin-5-yl)-2,3-dihydro-1,4-benzodioxin-7-yl]pyridine-2,4-diamine] | 100 to 500 | 100 to 500 | 100 to 500 | > 10000 | –
11 | CNc1cc(C)nc(Nc2cc3c(c([C@H]4C[C@H]5CNC[C@H]5C4)c2)OCC3)n1 [Compound 157, N2-[7-(1,2,3,3a,4,5,6,6a-octahydrocyclopenta[c]pyrrol-5-yl)-2,3-dihydrobenzofuran-5-yl]-N4,6-dimethyl-pyrimidine-2,4-diamine] | 100 to 500 | 100 to 500 | 100 to 500 | > 10000 | –
12 | CNc1cc(C)nc(Nc2cc3c(c(C4=CCNCCC4)c2Cl)OCO3)n1 [Compound 160, N2-[6-chloro-7-(2,3,4,7-tetrahydro-1H-azepin-5-yl)-1,3-benzodioxol-5-yl]-N4,6-dimethyl-pyrimidine-2,4-diamine] | < 100 | < 100 | < 100 | 5000 to 10000 | –
13 | CNc1cc(C)nc(Nc2cc3c(c(C4=CCNCCC4)c2Cl)OCCO3)n1 [Compound 166, N2-[6-chloro-5-(2,3,4,7-tetrahydro-1H-azepin-5-yl)-2,3-dihydro-1,4-benzodioxin-7-yl]-N4,6-dimethyl-pyrimidine-2,4-diamine] | < 100 | < 100 | < 100 | < 2000 | –
14 | CNc1cc(C)nc(Nc2cc3c(c(C4=CCNCCC4)c2F)OCC32CC2)n1 [Compound 172] | < 100 | < 100 | < 100 | 2000 to 5000 | –
15 | CNc1cc(C)nc(Nc2cc3c(c(C4=CCNCCC4)c2Cl)OCCC3)n1 [Compound 175] | < 100 | < 100 | < 100 | 5000 to 10000 | –
16 | CNc1cc(C)nc(Nc2cc3c(c(C4=CCN(C)CCC4)c2Cl)OCCC3)n1 [Compound 176] | < 100 | < 100 | < 100 | 2000 to 5000 | –
17 | CNc1cc(C)nc(Nc2cc3c(c(C4=CCNCC(O)C4)c2F)OCC3)n1 (stereo not drawn) [Compound 179, 5-[6-fluoro-5-[[4-methyl-6-(methylamino)pyrimidin-2-yl]amino]-2,3-dihydrobenzofuran-7-yl]-2,3,4,7-tetrahydro-1H-azepin-3-ol] | < 100 | < 100 | < 100 | > 10000 | –
18 | CNc1cc(C)nc(Nc2cc3c(c(C4=CCN(C)CC(O)C4)c2F)OCC3)n1 (stereo not drawn) [Compound 180] | < 100 | < 100 | < 100 | > 10000 | –
19 | CNc1cc(C)nc(Nc2c(F)c3c(c(C4=CCNCCC4)c2F)OCC3)n1 [Compound 187] | < 100 | < 100 | 100 to 500 | > 10000 | –

More lines, main results first:

Row | IC50 (H3K9me2 in HCT116 cells) [nM] | IC50 (human EHMT1 982-1266) [nM] | IC50 (human EHMT2 913-1193) [nM] | Compound | IC50 (hERG potassium channels; hERG IC50, SyncroPatch) [nM] | IC50 (hERG potassium channels; [1]) [nM]
20 | < 100 | < 100 | < 100 | CNc1cc(C)nc(Nc2cc3c(c(C4=CCNCC(F)C4)c2F)OCC3)n1 (single isomer, unassigned) [Compound 167] | 5000 to 10000 | –
21 | < 100 | < 100 | < 100 | CNc1cc(C)nc(Nc2cc3c(c(C4=CCNCCC4)c2F)OCC3C)n1 (single isomer, unassigned) [Compound 169] | 5000 to 10000 | –
22 | < 100 | < 100 | < 100 | CNc1cc(C)nc(Nc2cc3c(c(C4=CCNC(C)CC4)c2F)OCC3)n1 (single isomer, unassigned) [Compound 183] | > 10000 | –
23 | < 100 | < 100 | < 100 | CNc1cc(C)nc(Nc2cc3c(c(C4=CCNC(C)CC4)c2Cl)OCCC3)n1 (single isomer, unassigned) [Compound 357] | 5000 to 10000 | –
24 | < 100 | < 100 | < 100 | CNc1cc(C)nc(Nc2cc3c(c(C4=CCNC(C)CC4)c2F)OCO3)n1 (single isomer, unassigned) [Compound 369] | 5000 to 10000 | –
25 | < 100 | < 100 | < 100 | CNc1cc(C)nc(Nc2cc3c(c(C4=CCNCC(O)C4)c2F)OCC3)n1 (single isomer, unassigned) [Compound 373] | > 10000 | –
26 | < 100 | < 100 | < 100 | CNc1cc(C)nc(Nc2cc3c(c(C4=CCNC(C)CC4)c2Cl)OCC3)n1 (single isomer, unassigned) [Compound 374] | > 10000 | –
27 | < 100 | < 100 | < 100 | CNc1cc(C)nc(Nc2cc3c(c(C4=CCNCCC4)c2)OCC3)n1 [Compound 110, N4,6-dimethyl-N2-[7-(2,3,4,7-tetrahydro-1H-azepin-5-yl)-2,3-dihydrobenzofuran-5-yl]pyrimidine-2,4-diamine] | > 10000 | > 10000
28 | < 100 | < 100 | < 100 | CNc1cc(C)nc(Nc2cc3c(c(C4=CCN(C)CCC4)c2)OCC3)n1 [Compound 111, N4,6-dimethyl-N2-[7-(1-methyl-2,3,4,7-tetrahydroazepin-5-yl)-2,3-dihydrobenzofuran-5-yl]pyrimidine-2,4-diamine] | > 10000 | > 10000
